Laboratory results reported in ChEMBL document CHEMBL4229350, “Antimicrobial activity and self-assembly behavior of antimicrobial peptide chensinin-1b with lipophilic alkyl tails” (Eur J Med Chem, 2018).
Converted amounts (≈) assume the structure as drawn. One block for each compound: values may come before it. The source made the active and inactive calls. The calls are words filed in the database; no cut-off is given here. Bridge positions count the residues as written; N and C are the ends. Square brackets hold non-standard residues; d marks the D form. Peptide text beside a SMILES is read from it. * marks the point of attachment. X1 = CC[C@H](C)CCCCC(=O)*; Octanoyl = CCCCCCCC(=O)*; Dab = NCC[C@H](N)C(=O)O

How the values were obtained:
U-937 [1] = assay: Antiinflammatory activity in human U937 cells assessed as inhibition of LPS-induced IL-6 production up to 40 microg/ml after 24 hrs by ELISA relative to control; assay type: functional
U-937 [2] = assay: Antiinflammatory activity in human U937 cells assessed as inhibition of LPS-induced TNF-alpha production up to 40 microg/ml after 24 hrs by ELISA relative to control; assay type: functional
Lipopolysaccharide (LPS) [3] = assay: Induction of LPS micelles disaggergation assessed as small particle distribution at 2 uM by DLS method
U-937 [4] = assay: Antiinflammatory activity in human U937 cells assessed as inhibition of LPS-induced IL-6 production after 24 hrs by ELISA; assay type: functional, cell-based
Lipopolysaccharide (LPS) [5] = assay: Binding affinity to Escherichia coli 0111:B4 LPS by ITC method
U-937 [6] = assay: Antiinflammatory activity in human U937 cells assessed as inhibition of LPS-induced IL-6 production at 6.25 uM after 24 hrs by ELISA relative to control; assay type: functional; details: U-937, 24 h
U-937 [7] = assay: Antiinflammatory activity in human U937 cells assessed as inhibition of LPS-induced TNF-alpha production after 24 hrs by ELISA; assay type: functional, cell-based
Lipid bilayer [8] = assay: Induction of membrane permeabilization in calcein loaded PG/CL large unilamellar vesicles assessed as calcein leakage at 6 uM after 15 mins by fluorescence assay relative to control
Enterococcus faecium = assay: Antimicrobial activity against Enterococcus faecium CGMCC 1.2334 after 18 hrs by micro dilution method; assay type: functional; details: CGMCC 1.2334, 18 h
MCF7 = assay: Cytotoxicity against human MCF7 cells assessed as reduction in cell viability after 1 hr by MTT assay; assay type: functional, cell-based; details: MCF7, 1 h
Staphylococcus aureus [9] = assay: Antimicrobial activity against Staphylococcus aureus AS 1.72 assessed as induction of outer membrane permeabilization by measuring NPN uptake by fluorescence assay; assay type: functional, organism-based
Lipid bilayer [10] = assay: Induction of membrane permeabilization in calcein loaded PG/CL large unilamellar vesicles assessed as calcein leakage at 3 uM after 10 mins by fluorescence assay relative to control
Lipid bilayer [11] = assay: Induction of membrane permeabilization in calcein loaded PG/CL/PE large unilamellar vesicles assessed as calcein leakage at 6 uM after 15 mins by fluorescence assay relative to control
Escherichia coli [12] = assay: Antimicrobial activity against Escherichia coli AS 1.349 after 18 hrs by micro dilution method; assay type: functional; details: AS 1.349, 18 h
[13] = Cytotoxicity against human U937 cells assessed as cell viability at 3.13 to 12.6 uM after 1 hr by MTT assay relative to control; assay type: cell-based, U-937; details: read-out: Activity
Escherichia coli [14] = assay: Antimicrobial activity against Escherichia coli AS 1.349 assessed as induction of bacterial cytoplasmic membrane depolarization at 2 times MIC after 5 mins by diSC3-5 dye-based fluorescence assay; assay type: functional, organism-based
U-937 [15] = assay: Antiinflammatory activity in human U937 cells assessed as inhibition of LPS-induced TNF-alpha production at 3.13 uM after 24 hrs by ELISA relative to control; assay type: functional; details: U-937, 24 h
HeLa = assay: Cytotoxicity against human HeLa cells assessed as reduction in cell viability after 1 hr by MTT assay; assay type: functional, cell-based
Lipopolysaccharide (LPS) [16] = assay: Binding affinity to Escherichia coli 0111:B4 LPS assessed as equilibrium association constant by ITC method
[17] = Hemolytic activity against human erythrocytes after 1 hr; assay type: ADME, cell-based, Erythrocyte
Lipid bilayer [18] = assay: Induction of membrane permeabilization in calcein loaded PG/CL/PE large unilamellar vesicles assessed as calcein leakage at 3 uM after 10 mins by fluorescence assay relative to control
Bacillus cereus = assay: Antimicrobial activity against Bacillus cereus AS 1.126 after 18 hrs by micro dilution method; assay type: functional; details: AS 1.126, 18 h
[19] = Self-assembly property assessed as diameter of monodispersed micelles at 1 mg/ml at pH 7 by TEM analysis; assay type: physicochemical
Staphylococcus aureus [20] = assay: Antimicrobial activity against Staphylococcus aureus AS 1.72 after 18 hrs by micro dilution method; assay type: functional; details: AS 1.72, 18 h
Lipopolysaccharide (LPS) [21] = assay: Induction of LPS micelles disaggergation assessed as abundant particle size formation at 2 uM by DLS method
Pseudomonas aeruginosa = assay: Antimicrobial activity against Pseudomonas aeruginosa CGMCC 1.860 after 18 hrs by micro dilution method; assay type: functional; details: CGMCC 1.860, 18 h
Escherichia coli [22] = assay: Antimicrobial activity against Escherichia coli AS 1.349 assessed as induction of outer membrane permeabilization by measuring NPN uptake by fluorescence assay; assay type: functional, organism-based
U-937 [23] = assay: Antiinflammatory activity in human U937 cells assessed as inhibition of LPS-induced TNF-alpha production at 6.25 uM after 24 hrs by ELISA relative to control; assay type: functional; details: U-937, 24 h
Lipid bilayer [24] = assay: Induction of membrane permeabilization in calcein loaded LPS/PC/PG large unilamellar vesicles assessed as calcein leakage after 15 mins by fluorescence assay
Staphylococcus aureus [25] = assay: Antimicrobial activity against Staphylococcus aureus AS 1.72 assessed as induction of bacterial cytoplasmic membrane depolarization at 2 times MIC after 4 mins by diSC3-5 dye-based fluorescence assay; assay type: functional, organism-based
Lipid bilayer [26] = assay: Induction of membrane permeabilization in PG/CL large unilamellar vesicles assessed as blue shift at compound to lipid ratio of 60 by Tryptophan fluorescence spectroscopy
Enterococcus faecalis = assay: Antimicrobial activity against Enterococcus faecalis CGMCC 1.595 after 18 hrs by micro dilution method; assay type: functional; details: CGMCC 1.595, 18 h
[27] = Self-assembly property assessed as diameter of monodispersed micelles at 1 mg/ml at pH 7 readjusted from pH 2 by TEM analysis; assay type: physicochemical
Lipid bilayer [28] = assay: Induction of membrane permeabilization in PC/cholesterol large unilamellar vesicles assessed as blue shift by Tryptophan fluorescence spectroscopy
A-375 = assay: Cytotoxicity against human A375 cells assessed as reduction in cell viability after 1 hr by MTT assay; assay type: functional, cell-based; details: A-375, 1 h
Lipid bilayer [29] = assay: Induction of membrane permeabilization in calcein loaded LPS/PC/PG large unilamellar vesicles assessed as calcein leakage at 50 uM after 15 mins by fluorescence assay relative to control
Lipid bilayer [30] = assay: Induction of membrane permeabilization in PG/CL/PE large unilamellar vesicles assessed as blue shift at compound to lipid ratio of 10 by Tryptophan fluorescence spectroscopy
U-937 [31] = assay: Antiinflammatory activity in human U937 cells assessed as inhibition of LPS-induced IL-6 production at 12.6 uM after 24 hrs by ELISA relative to control; assay type: functional; details: U-937, 24 h
Lactococcus lactis = assay: Antimicrobial activity against Streptococcus lactis AS 1.1690 after 18 hrs by micro dilution method; assay type: functional; details: AS 1.1690, 18 h
U-937 [32] = assay: Antiinflammatory activity in human U937 cells assessed as inhibition of LPS-induced TNF-alpha production at 12.6 uM after 24 hrs by ELISA relative to control; assay type: functional; details: U-937, 24 h
U-937 [33] = assay: Antiinflammatory activity in human U937 cells assessed as inhibition of LPS-induced IL-6 production at 3.13 uM after 24 hrs by ELISA relative to control; assay type: functional; details: U-937, 24 h
Lipid bilayer [34] = assay: Induction of membrane permeabilization in calcein loaded PC/cholesterol large unilamellar vesicles assessed as calcein leakage at 50 uM after 10 mins by fluorescence assay relative to control

Compound: CC[C@H](C)CCCCC(=O)N[C@@H](CCN)C(=O)N[C@H](C(=O)N[C@@H](CCN)C(=O)N[C@H]1CCNC(=O)[C@H]([C@@H](C)O)NC(=O)[C@H](CCN)NC(=O)[C@H](CCN)NC(=O)[C@H](CC(C)C)NC(=O)[C@@H](Cc2ccccc2)NC(=O)[C@H](CCN)NC1=O)[C@@H](C)O (X1-[Dab]T[Dab][Dab][Dab][dF]L[Dab][Dab]T; lactam 4-C)
- inhibition (INH) (U-937 [1]): 44%
- inhibition (INH) (U-937 [2]): 28%

- Activity (Lipopolysaccharide (LPS) [3]): 400 nm
- Activity (Lipid bilayer [8]): 95%
- MIC (Enterococcus faecium): 1.56 µM (≈ 4.16 µg/mL)
- Activity (Lipid bilayer [10]): 88%
- Activity (Lipid bilayer [11]): 92%
- MIC (Escherichia coli [12]): 3.13 µM (≈ 8.35 µg/mL)
- Ka (Lipopolysaccharide (LPS) [16]): 92.3 mM⁻¹
- Activity (Lipid bilayer [18]): 66%
- MIC (Bacillus cereus): 1.56 µM (≈ 4.16 µg/mL)
- Activity [19]: 80 nm
- MIC (Staphylococcus aureus [20]): 3.13 µM (≈ 8.35 µg/mL)
- Activity (Lipopolysaccharide (LPS) [21]): 68 nm
- MIC (Pseudomonas aeruginosa): 1.56 µM (≈ 4.16 µg/mL)
- Activity (Lipid bilayer [24]): Dose-dependent effect
- Activity (Lipid bilayer [26]): 24 nm
- MIC (Enterococcus faecalis): 1.56 µM (≈ 4.16 µg/mL)
- Activity [27]: 7 nm
- Activity (Lipid bilayer [28]): inactive
- Activity (Lipid bilayer [29]): 73%
- Activity (Lipid bilayer [30]): 16 nm
- MIC (Lactococcus lactis): 1.56 µM (≈ 4.16 µg/mL)
- Activity (Lipid bilayer [34]): 20%
Compound: CCCCCCCC(=O)N[C@@H](CO)C(=O)N[C@@H](CCCCN)C(=O)N[C@H](C(=O)N[C@@H](Cc1c[nH]c2ccccc12)C(=O)N[C@@H](CCCNC(=N)N)C(=O)N[C@@H](Cc1cnc[nH]1)C(=O)N[C@@H](Cc1c[nH]c2ccccc12)C(=O)N[C@@H](CCCNC(=N)N)C(=O)N[C@@H](CCCNC(=N)N)C(=O)N[C@@H](Cc1ccccc1)C(=O)N[C@@H](Cc1c[nH]c2ccccc12)C(=O)N[C@@H](Cc1cnc[nH]1)C(=O)N[C@@H](CCCNC(=N)N)C(=O)N[C@@H](C)C(=O)N[C@@H](Cc1cnc[nH]1)C(=O)N[C@@H](CCCNC(=N)N)C(=O)N[C@@H](CCCCN)C(=O)N[C@@H](CC(C)C)C(=O)O)C(C)C (Octanoyl-SKVWRHWRRFWHRAHRKL-OH)
- inhibition (U-937 [4]): Dose-dependent effect
- Kd (Lipopolysaccharide (LPS) [5]): 10.8 µM
- inhibition at 6.25 µM (U-937 [6]): 8%
- inhibition (U-937 [7]): Dose-dependent effect
- IC50 (MCF7): 34.9 µM
- Activity (Staphylococcus aureus [9]): Dose-dependent effect
- viability at 1 h, up to 12.6 µM [13]: 80%
- Activity (Escherichia coli [14]): Active
- inhibition at 3.13 µM (U-937 [15]): 24%
- IC50 (HeLa): 23.9 µM
- HC50 at 1 h [17]: > 500 µM
- Activity (Escherichia coli [22]): Dose-dependent effect
- inhibition at 6.25 µM (U-937 [23]): 28%
- Activity (Staphylococcus aureus [25]): Active
- IC50 (A-375): 51 µM
- inhibition at 12.6 µM (U-937 [31]): 24%
- inhibition at 12.6 µM (U-937 [32]): 30%
- inhibition at 3.13 µM (U-937 [33]): 7%
